For data set [1], the system named is mouse. In words: Progressive ratio test in the mouse.
The test system of data set [2] is Caco-2.
[3] abbreviates: 300 mg/kg IP daily for 4 days, listed as 2R,6R-HNK.
The mark [4] stands for this setting: 300 mg/kg, replication after 3-week wash-out, listed as 2R,6R-HNK.
The mark [5] stands for this setting: dose matched to 300 mg/kg 2R,6R-HNK.

“Also recorded” adds a separate entry of the source. Like-named read-outs stand apart in the source and are kept apart here.

With `N[C@@]1(c2ccccc2Cl)CCC[C@@H](O)C1=O` [2R,6R-hydroxynorketamine L-pyroglutamate], the “average responses per minute, higher compared with vehicle” value in data set [1] (300 mg/kg IP) came out at 29%. For the same molecule, the “number of target touches compared to ketamine and vehicle groups” value in data set [1] (300 mg/kg IP daily for 4 days) is given as “significant increase”. Further, the “breakpoint compared to vehicle and ketamine” value in data set [1] (300 mg/kg IP daily for 4 days, tested 20 minutes after injection) is reported as “significant increase”; in data set [1] (300 mg/kg, replication after 3-week wash-out), “significant increase”. Also, the “% of correct touches” value is given as “significant increase; also recorded: significantly increased” in data set [1] (setting [3]) and “significant increase; also recorded: increased” in data set [1] (setting [4]). Besides, the “ratio of target touches to blank touches” value in data set [1] (setting [3]) was “significant increase; also recorded: significantly increased”; in data set [1] (setting [4]), “significant increase; also recorded: increased”. The “rate of responding (running rate) compared to ketamine and vehicle groups” value in data set [1] (300 mg/kg IP, 60 minute test session) is recorded as “higher rate of responding”. For the same molecule, the “predicted peak responding (running rate coefficient)” value in data set [1] (300 mg/kg IP, p=0.12) was “trend toward a main effect of drug”. The “average responses per minute, higher compared with ketamine” value in data set [1] (300 mg/kg IP, ketamine 10 mg/kg) stood at 59%. Besides, the “number of target touches” value in data set [1] (setting [4]) is recorded as “significant increase; also recorded: increased”. The cognitive measures result in data set [1] (doses below 30 mg/kg) is on record as “No increase”.
In the case of `O=C1CC[C@@H](C(=O)[O-])N1.[Na+]` [NaPg, sodium L-pyroglutamate, reference compound], in data set [1] (setting [5]), the any measure examined entry is on record as “did not significantly affect” and the “breakpoint compared to vehicle controls” value was “did not increase”.
As to `CC(C)NCC(O)COc1cccc2ccccc12` (stereo not shown) [Propranolol, reference compound], in data set [2] (Direction = A2B), the “Papp Replicate 1” value is reported as 26.0 10^−6 cms^−1 and the “Papp Replicate 2” value is reported as 27.4 10^−6 cms^−1. Also, in data set [2] (Direction = B2A), the “Papp Replicate 1” value is on record as 27.0 10^−6 cms^−1 and the “Papp Replicate 2” value is on record as 26.2 10^−6 cms^−1.

The values are drawn from patent US20210315840A1, “SOLID ORAL DOSAGE FORMS OF KETAMINE DERIVATIVES” (priority 2017, published 2021).
